{
  "source": "patent EP0812835B1",
  "about": "“OPTICALLY ACTIVE THIAZOLIDINONE DERIVATIVES” (SANKYO COMPANY LIMITED, priority 1995, dated 1996)",
  "key": {"Collateral Vessel [1]": {"system": "Collateral Vessel", "test": "Collateral vessel dilating action by intravenous administration (Collateral Index, carotid artery occlusion)", "assay_type": "in vivo, Beagle dogs (male)", "conditions": "dose of 0.3 mg/kg, intravenous (inguinal vein), anesthetized dogs", "procedure": "Collateral Vessel Dilating Action by Intravenous Administration\nBeagle dogs (male) weighing 9 to 13 kg were anesthetized by intravenous injection of pentobarbital at a dose of 30 mg/kg and tested under artificial respiration. In order to measure the pressure of the left carotid artery, a polyethylene cannula (Atom intravenous catheter 2F) was inserted […] into one branch of the left thyroid artery. The left carotid artery upstream from this pressure measurement site was occluded for 1 minute with an arterial clamp, and the pressure immediately before occlusion (P) and the decrease in peripheral pressure (ΔP) were measured. Next, the test drug was administered through another polyethylene cannula inserted into the inguinal vein. The left carotid artery was occluded for 1 minute after 5, 15, 30, 45 and 60 minutes, and pressure immediately before occlusion (Pa) and the decrease in peripheral pressure (ΔPa) each time were measured. Collateral vessel dilating effect (Collateral Index = CI) of the test drug was determined according to the following formula: CI = 100 - (ΔPa/Pa) x 100/(ΔP/P) [formula]"}, "Collateral Vessel [2]": {"system": "Collateral Vessel", "test": "Collateral vessel dilating action by administration into the portal vein (first-pass effect test)", "assay_type": "in vivo, Beagle dogs (male)", "conditions": "administered into the portal vein, compared with intravenous administration, 60 minutes", "procedure": "Collateral Vessel Dilating Action by Administration into the Portal Vein\nWhile test specimens were prepared according to the method of Test example 1, the animal was laparotomized along the abdominal median line, and a branch of the mesenteric vein was removed and incised so as to administer the test drug into the portal vein. A polyethylene cannula (Atom intravenous catheter 2F) was inserted antegrade into this vein to reside in the portal vein, and then the test drug was administered through it. In order to test the first-pass effect of the test drug, it was first administered intravenously (inguinal vein) to determine collateral vessel dilating action of the drug for 60 minutes. The same test drug was then administered into the portal vein 2 or 3 hours later to determine collateral vessel dilating action for 60 minutes, and those actions were compared with each other."}, "aspirin-induced ulcer": {"system": "aspirin-induced ulcer", "test": "Inhibition of aspirin-induced ulcer", "assay_type": "in vivo, Donryu strain male rats", "conditions": "for Inhibition rate (%): 1 hour before aspirin, area of ulceration vs control group", "procedure": "Inhibition of aspirin-induced ulcer\nAs a test animal, 10 Donryu strain male rats each weighing 200 g-250 g were used in one group. The rats were fasted before the experiment for 24 hours but they could freely drink water. The test compounds were suspended in 0.5% carboxymethyl cellulose (CMC) solution. Meanwhile, for a control group, 0.5% CMC solution was used.\nThe test compound was orally administered (0.1 ml/100 g body weight) to the rats and an aspirin solution (150 mg/ml: suspended in 0.5% CMC solution) was orally administered (0.1 ml/100 g body weight) to the rats 1 hour later. Four hours after the administration of the aspirin solution, the rats were sacrificed using carbon dioxide gas and the stomach of each rat was taken out. Into the stomachs were poured 10 ml of 1% formalin solution to allow the stomachs to expand, and the stomachs were immersed in 1% formalin solution in a beaker for about 15-20 minutes. Then, each stomach was cut along the greater curvature thereof and an area of the ulceration in the gastric mucosa was measured by means of an image analysis apparatus [Luzex-F: manufactured by Nireko Co., Ltd.]. The average value of the area of the ulceration of each group was calculated from the area of the ulceration of each rat and the inhibition rate was obtained by comparing the average value of the test group with that of the control group."}, "[3]": {"test": "Stability of compounds (storage, residual ratio by high pressure liquid chromatography)", "assay_type": "physicochemical", "conditions": "for storage stability: in words", "procedure": "About 2 mg of the test compound was accurately weighed and placed in a brown bottle. The bottle was left to stand at a dark place at room temperature (24-26°C) for 4 weeks and a residual ratio (%) of the test compound was measured by high pressure liquid chromatography (column: Inertsil ODS-3, eluting solvent: 10 mM (pH=7.0) phosphoric acid buffer/acetonitrile=80/20)."}},
  "note": "Marks after values point to notes of the source that are not given here.",
  "data": [
    {"molecule": "C[C@@H](CO[N+](=O)[O-])NC(=O)[C@@H]1CSC(=O)N1", "note": "[Example 1, (4R)-N-[(1S)-1-Methyl-2-nitroxyethyl]-2-oxothiazolidin-4-vl-carboxamide]", "values": [
      {"measurement": "CI(60)", "setting": "Collateral Vessel [1]", "value": "> 10"},
      {"measurement": "collateral vessel dilating action", "setting": "Collateral Vessel [2]", "value": "excellent collateral vessel dilating action"},
      {"measurement": "Inhibition rate (%)", "setting": "aspirin-induced ulcer; 30 mg/kg orally, p<0.05", "value": "63.58*^) %"},
      {"measurement": "Inhibition rate (%)", "setting": "aspirin-induced ulcer; 100 mg/kg orally, p<0.005", "value": "80.15**^) %"},
      {"measurement": "Inhibition rate (%)", "setting": "aspirin-induced ulcer; 300 mg/kg orally, p<0.005", "value": "93.17**^) %"},
      {"measurement": "anti-ulcerative action", "setting": "aspirin-induced ulcer; result in words, summary of Table 4", "value": "excellent anti-ulcerative action"},
      {"measurement": "Residual ratio (%)", "setting": "[3]; dark place at room temperature (24-26°C) for 4 weeks, brown bottle", "value": 101.2, "unit": "%"},
      {"measurement": "storage stability", "setting": "[3]; as compared with the 1:1 mixture of Example 1 and the (4R),(1R)-isomer", "value": "excellent storage stability"},
      {"measurement": "storage stability", "setting": "[3]; as compared with the (4R),(1R)-isomer", "value": "excellent storage stability"}
    ]},
    {"molecule": "CCC[C@@H](CO[N+](=O)[O-])NC(=O)[C@@H]1CSC(=O)N1", "note": "[Example 5, (4R)-N-[(1S)-1-Propyl-2-nitroxyethyl]-2-oxothiazolidin-4-yl-carboxamide]", "values": [
      {"measurement": "CI(60)", "setting": "Collateral Vessel [1]", "value": "> 10"}
    ]},
    {"molecule": "CCCC[C@@H](CO[N+](=O)[O-])NC(=O)[C@@H]1CSC(=O)N1", "note": "[Example 6, (4R)-N-[(1S)-1-Butyl-2-nitroxyethyl]-2-oxothiazolidin-4-yl-carboxamide]", "values": [
      {"measurement": "CI(60)", "setting": "Collateral Vessel [1]", "value": "> 10"}
    ]},
    {"molecule": "CC(C)C[C@@H](CO[N+](=O)[O-])NC(=O)[C@@H]1CSC(=O)N1", "note": "[Example 8, (4R)-N-[(1S)-1-Isobutyl-2-nitroxyethyl]-2-oxothiazolidin-4-yl-carboxamide]", "values": [
      {"measurement": "CI(60)", "setting": "Collateral Vessel [1]", "value": "> 10"}
    ]}
  ]
}
